Assay results as given in paper PMC8125603, “Species-Specific Regulation of TRPM2 by PI(4,5)P2 via the Membrane Interfacial Cavity” (International Journal of Molecular Sciences, 2021).

Legend:
[1] = target: T1, nvTRPM2 (Nematostella vectensis, UniProt A7T1N0); experiment: inside-out patch clamp, HEK-293 cells, -60 mV, dose-response of current activation; assay type: biochemical
T1 construct: gene TRPM2; full-length wild-type cDNA in modified pIRES-hrGFP-2a, transient in HEK-293 cells; homotetramer; inside-out patches (C-terminal 3xHA tag only for surface expression tests)

[2] = target: T2, hsTRPM2 (Homo sapiens, UniProt O94759); experiment: as above; assay type: biochemical
T2 construct: gene TRPM2; full-length wild-type cDNA in modified pIRES-hrGFP-2a, transient in HEK-293 cells; homotetramer; inside-out patches (C-terminal 3xHA tag only for surface expression tests)
T2 sequence (O94759 whole entry): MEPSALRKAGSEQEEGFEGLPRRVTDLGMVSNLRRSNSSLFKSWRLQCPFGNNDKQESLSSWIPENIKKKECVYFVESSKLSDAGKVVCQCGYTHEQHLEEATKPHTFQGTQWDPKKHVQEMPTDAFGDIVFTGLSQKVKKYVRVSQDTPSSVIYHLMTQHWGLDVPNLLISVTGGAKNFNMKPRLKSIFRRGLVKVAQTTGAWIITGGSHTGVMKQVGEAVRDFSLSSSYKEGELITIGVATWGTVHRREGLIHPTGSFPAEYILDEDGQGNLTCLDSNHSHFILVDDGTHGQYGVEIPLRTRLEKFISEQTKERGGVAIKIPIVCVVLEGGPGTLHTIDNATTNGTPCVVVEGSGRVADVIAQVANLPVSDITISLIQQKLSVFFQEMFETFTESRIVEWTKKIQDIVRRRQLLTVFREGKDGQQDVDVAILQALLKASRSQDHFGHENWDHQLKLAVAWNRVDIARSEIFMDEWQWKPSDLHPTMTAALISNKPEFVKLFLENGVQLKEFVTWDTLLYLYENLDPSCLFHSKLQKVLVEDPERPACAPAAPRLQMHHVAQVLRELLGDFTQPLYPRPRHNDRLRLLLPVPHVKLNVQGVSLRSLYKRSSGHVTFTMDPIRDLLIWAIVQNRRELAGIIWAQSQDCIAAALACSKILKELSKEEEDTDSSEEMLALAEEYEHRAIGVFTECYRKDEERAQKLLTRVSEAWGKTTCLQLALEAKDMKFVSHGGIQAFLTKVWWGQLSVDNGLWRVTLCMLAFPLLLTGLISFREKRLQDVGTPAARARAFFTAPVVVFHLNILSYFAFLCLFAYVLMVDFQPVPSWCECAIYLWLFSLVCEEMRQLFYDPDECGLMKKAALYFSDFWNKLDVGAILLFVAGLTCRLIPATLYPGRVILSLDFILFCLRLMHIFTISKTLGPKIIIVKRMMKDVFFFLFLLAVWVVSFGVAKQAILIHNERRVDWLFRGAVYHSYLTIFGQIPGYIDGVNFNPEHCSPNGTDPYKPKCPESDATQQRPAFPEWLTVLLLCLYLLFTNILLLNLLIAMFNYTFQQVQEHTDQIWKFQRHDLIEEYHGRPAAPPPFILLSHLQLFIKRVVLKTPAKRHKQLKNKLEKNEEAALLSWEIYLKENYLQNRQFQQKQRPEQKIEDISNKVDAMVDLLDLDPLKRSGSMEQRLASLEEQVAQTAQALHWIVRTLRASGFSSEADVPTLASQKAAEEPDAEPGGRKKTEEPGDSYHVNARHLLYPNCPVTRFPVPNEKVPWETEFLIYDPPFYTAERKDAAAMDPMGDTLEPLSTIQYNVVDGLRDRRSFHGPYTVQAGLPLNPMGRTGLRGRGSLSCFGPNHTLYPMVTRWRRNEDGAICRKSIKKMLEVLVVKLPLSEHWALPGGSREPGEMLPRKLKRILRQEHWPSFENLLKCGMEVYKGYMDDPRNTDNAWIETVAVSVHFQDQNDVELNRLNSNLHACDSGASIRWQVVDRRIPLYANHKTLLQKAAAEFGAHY

T1 sequence (A7T1N0 whole entry): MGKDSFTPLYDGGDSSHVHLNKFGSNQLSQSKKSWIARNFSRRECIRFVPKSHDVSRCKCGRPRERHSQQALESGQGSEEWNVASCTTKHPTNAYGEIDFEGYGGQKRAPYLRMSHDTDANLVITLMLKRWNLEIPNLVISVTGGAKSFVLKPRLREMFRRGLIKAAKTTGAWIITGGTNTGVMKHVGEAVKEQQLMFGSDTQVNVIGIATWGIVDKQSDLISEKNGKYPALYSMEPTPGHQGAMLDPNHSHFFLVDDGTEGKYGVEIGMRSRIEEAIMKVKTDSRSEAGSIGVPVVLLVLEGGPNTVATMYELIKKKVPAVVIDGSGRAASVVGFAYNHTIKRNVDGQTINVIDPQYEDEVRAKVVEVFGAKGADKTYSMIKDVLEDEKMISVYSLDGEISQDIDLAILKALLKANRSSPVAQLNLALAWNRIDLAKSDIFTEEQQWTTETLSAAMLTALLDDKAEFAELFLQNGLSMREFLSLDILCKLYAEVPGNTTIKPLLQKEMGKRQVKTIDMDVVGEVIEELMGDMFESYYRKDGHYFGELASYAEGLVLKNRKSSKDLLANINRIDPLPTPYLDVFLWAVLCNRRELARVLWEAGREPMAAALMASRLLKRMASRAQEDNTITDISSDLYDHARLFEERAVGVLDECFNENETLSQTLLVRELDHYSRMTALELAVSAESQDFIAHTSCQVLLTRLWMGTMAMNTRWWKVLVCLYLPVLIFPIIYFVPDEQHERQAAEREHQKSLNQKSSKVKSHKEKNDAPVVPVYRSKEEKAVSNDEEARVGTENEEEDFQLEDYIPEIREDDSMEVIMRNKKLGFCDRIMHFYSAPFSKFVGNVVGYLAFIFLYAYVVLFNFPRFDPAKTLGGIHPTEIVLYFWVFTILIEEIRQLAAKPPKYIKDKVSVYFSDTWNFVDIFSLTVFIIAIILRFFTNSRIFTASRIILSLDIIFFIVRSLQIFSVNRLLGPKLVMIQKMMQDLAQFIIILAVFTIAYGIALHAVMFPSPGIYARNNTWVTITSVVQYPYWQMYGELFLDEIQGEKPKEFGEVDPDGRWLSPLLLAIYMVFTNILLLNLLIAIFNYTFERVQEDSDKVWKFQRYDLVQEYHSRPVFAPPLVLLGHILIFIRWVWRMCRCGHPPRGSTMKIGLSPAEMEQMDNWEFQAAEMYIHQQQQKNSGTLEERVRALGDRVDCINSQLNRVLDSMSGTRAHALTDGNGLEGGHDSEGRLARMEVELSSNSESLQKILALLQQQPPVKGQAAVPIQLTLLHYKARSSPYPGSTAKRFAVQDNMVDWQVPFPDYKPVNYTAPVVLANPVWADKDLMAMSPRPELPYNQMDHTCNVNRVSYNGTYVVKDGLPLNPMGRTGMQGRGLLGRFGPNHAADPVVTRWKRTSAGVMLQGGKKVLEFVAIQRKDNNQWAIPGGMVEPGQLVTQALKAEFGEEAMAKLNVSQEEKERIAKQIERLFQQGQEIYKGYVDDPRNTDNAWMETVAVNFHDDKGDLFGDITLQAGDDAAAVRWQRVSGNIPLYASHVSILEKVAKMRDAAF

In the case of CCCCCCCC(=O)OC[C@H](COP(=O)(O)O[C@@H]1[C@H](O)[C@H](O)[C@@H](OP(=O)(O)O)[C@H](OP(=O)(O)O)[C@H]1O)OC(=O)CCCCCCC [PIP2], the EC50 [1] is reported as 2.1 ± 0.2 µM and the EC50 [2] is reported as 11.9 ± 1.1 µM.
